According to ChEMBL document CHEMBL4177573 (Bioorg Med Chem, 2017):
pEC50, pIC50: −log10 of the molar value. Activity calls are given as the source filed them. No cut-off for these calls is given here.

What was measured:
[1] = Tmax in C57BL/6J mouse at 1 mg/kg, sc measured during 5 mins to 24 hrs by LC/MS/MS method; assay type: ADME, organism-based; details: in vivo
[2] = Volume of distribution at steady state in C57BL/6J mouse at 1 mg/kg, iv measured during 5 mins to 24 hrs by LC/MS/MS method; assay type: ADME, organism-based; details: in vivo, read-out: Vdss
[3] = target: T1, Neuropeptide Y receptor type 2 (Homo sapiens, UniProt P49146); test: Displacement of [125I]-PYY from human neuropeptide Y2 receptor expressed in CHO cell membranes incubated for 60 mins by TopCount based method
T1 sequence (P49146 whole entry): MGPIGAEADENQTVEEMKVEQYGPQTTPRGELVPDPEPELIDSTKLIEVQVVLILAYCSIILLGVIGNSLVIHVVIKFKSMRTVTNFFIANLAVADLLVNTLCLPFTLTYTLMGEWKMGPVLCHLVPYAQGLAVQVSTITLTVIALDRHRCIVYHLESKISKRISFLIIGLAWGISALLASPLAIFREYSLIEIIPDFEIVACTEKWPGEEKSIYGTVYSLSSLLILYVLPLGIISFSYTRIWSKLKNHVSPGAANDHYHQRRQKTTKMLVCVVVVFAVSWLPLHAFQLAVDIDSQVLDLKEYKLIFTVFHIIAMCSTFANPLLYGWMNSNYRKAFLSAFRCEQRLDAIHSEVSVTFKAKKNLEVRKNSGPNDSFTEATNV

[4] = Cmax in C57BL/6J mouse at 1 mg/kg, sc measured during 5 mins to 24 hrs by LC/MS/MS method; assay type: ADME, organism-based; set-up: dose 1 mg/kg, route subcutaneous; details: in vivo
[5] = tested on: Mus musculus; test: Antiobesity activity in DIO C57BL/6J mouse assessed as reduction in mesenteric fat weight at 0.003 to 0.03 mg/kg, sc for 2 weeks dosed as continuous administration by infusion of osmotic pumps relative to untreated control; assay type: functional, organism-based
[6] = tested on: Mus musculus; test: Drug level in C57BL/6J mouse at 1 mg/kg, iv measured during 5 mins to 24 hrs by LC/MS/MS method; assay type: ADME, organism-based; details: in vivo, read-out: Drug uptake
[7] = target: Neuropeptide Y receptor type 4 (Rattus norvegicus, UniProt Q63447); test: Agonist activity at rat neuropeptide Y4 receptor by [35S]GTPgammaS binding assay; assay type: functional
[8] = tested on: Mus musculus; test: Anorectic activity in DIO C57BL/6J mouse assessed as reduction in cumulative food intake at 0.03 mg/kg, sc for 2 weeks dosed as continuous administration by infusion of osmotic pumps relative to untreated control; assay type: functional, organism-based
[9] = Total clearance in C57BL/6J mouse at 1 mg/kg, iv measured during 5 mins to 24 hrs by LC/MS/MS method; assay type: ADME, organism-based; details: in vivo
[10] = tested on: Mus musculus; test: Antiobesity activity in DIO C57BL/6J mouse assessed as reduction in perirenal weight at 0.003 to 0.03 mg/kg, sc for 2 weeks dosed as continuous administration by infusion of osmotic pumps relative to untreated control; assay type: functional, organism-based
[11] = target: T2, Neuropeptide Y receptor type 2 (Rattus norvegicus, UniProt Q9ERC0); test: Agonist activity at rat neuropeptide Y2 receptor by [35S]GTPgammaS binding assay; assay type: functional
T2 sequence (Q9ERC0 whole entry): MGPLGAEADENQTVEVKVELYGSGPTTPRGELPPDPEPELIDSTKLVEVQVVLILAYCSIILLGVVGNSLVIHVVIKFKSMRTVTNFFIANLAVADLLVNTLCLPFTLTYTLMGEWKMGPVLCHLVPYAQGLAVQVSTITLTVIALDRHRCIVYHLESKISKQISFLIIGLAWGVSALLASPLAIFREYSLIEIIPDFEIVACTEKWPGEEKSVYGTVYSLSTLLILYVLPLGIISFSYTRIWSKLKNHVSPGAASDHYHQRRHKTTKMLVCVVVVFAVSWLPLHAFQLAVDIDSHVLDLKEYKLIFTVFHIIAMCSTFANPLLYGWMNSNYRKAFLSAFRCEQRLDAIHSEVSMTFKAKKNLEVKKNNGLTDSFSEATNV

[12] = tested on: Mus musculus; test: Antiobesity activity in DIO C57BL/6J mouse assessed as reduction in body weight at 0.01 mg/kg, sc for 2 weeks dosed as continuous administration by infusion of osmotic pumps; assay type: functional; details: 336 h
[13] = tested on: Mus musculus; test: Anorectic activity in overnight fasted C57BL/6J mouse assessed as inhibition of food intake at 10 nmol/kg, sc followed by re-feeding post dose and measured for 2 hrs; assay type: functional, organism-based
[14] = target: T1, Neuropeptide Y receptor type 2; test: Agonist activity at human neuropeptide Y2 receptor expressed in CHO cell membranes assessed as stimulation of [35S]GTPgammaS binding incubated for 120 mins by liquid scintillation counting method; assay type: functional
[15] = MRT in C57BL/6J mouse at 1 mg/kg, sc measured during 5 mins to 24 hrs by LC/MS/MS method; assay type: ADME, organism-based; details: in vivo
[16] = tested on: Mus musculus; test: Antiobesity activity in DIO C57BL/6J mouse assessed as reduction in body weight at 0.003 to 0.03 mg/kg, sc for 2 weeks dosed as continuous administration by infusion of osmotic pumps relative to untreated control; assay type: functional, organism-based
[17] = Bioavailability in C57BL/6J mouse at 1 mg/kg, sc measured during 5 mins to 24 hrs by LC/MS/MS method; assay type: ADME, organism-based; details: in vivo
[18] = tested on: Mus musculus; test: Anorectic activity in overnight fasted Y2R-/- C57BL/6J mouse assessed as inhibition of food intake at 10 nmol/kg, sc followed by re-feeding post dose and measured for 2 hrs; assay type: functional, organism-based
[19] = AUC (0 to 24 hrs) in C57BL/6J mouse at 1 mg/kg, iv measured during 5 mins to 24 hrs by LC/MS/MS method; assay type: ADME, organism-based; set-up: dose 1 mg/kg, time < 24 hr, route intravenous; details: in vivo
[20] = tested on: Mus musculus; test: Anorectic activity in DIO C57BL/6J mouse assessed as reduction in cumulative food intake at 0.03 mg/kg, sc for 2 weeks dosed as continuous administration by infusion of osmotic pumps relative to 0.3 mg/kg/day, sc PYY(3-36); assay type: functional
[21] = tested on: Mus musculus; test: Anorectic activity in C57BL/6J mouse assessed as inhibition of food intake at 0.3 mg/kg/day, sc dosed as […] and measured after 12 hrs; assay type: functional
[22] = AUC (0 to 24 hrs) in C57BL/6J mouse at 1 mg/kg, sc measured during 5 mins to 24 hrs by LC/MS/MS method; assay type: ADME, organism-based; set-up: time < 24 hr, dose 1 mg/kg, route subcutaneous; details: in vivo
[23] = tested on: Mus musculus; test: Antiobesity activity in DIO C57BL/6J mouse assessed as reduction in liver weight at 0.003 to 0.03 mg/kg, sc for 2 weeks dosed as continuous administration by infusion of osmotic pumps relative to untreated control; assay type: functional, organism-based
[24] = tested on: Mus musculus; test: Anorectic activity in C57BL/6J mouse assessed as inhibition of food intake at 0.03 to 1 mg/kg/day, sc for 3 days dosed as continuous administration by infusion using osmotic pump; assay type: functional, organism-based
[25] = MRT in C57BL/6J mouse at 1 mg/kg, iv measured during 5 mins to 24 hrs by LC/MS/MS method; assay type: ADME, organism-based; details: in vivo
[26] = tested on: Mus musculus; test: Antiobesity activity in DIO C57BL/6J mouse assessed as reduction in body weight at 1 mg/kg, sc […] for 2 weeks dosed by infusion of osmotic pumps; assay type: functional; details: 336 h
[27] = tested on: Mus musculus; test: Antiobesity activity in DIO C57BL/6J mouse assessed as reduction in body weight at 0.03 mg/kg, sc for 2 weeks dosed as continuous administration by infusion of osmotic pumps relative to untreated control; assay type: functional; details: 336 h

Sequence of Neuropeptide Y receptor type 4 (Q63447 whole entry, the tested form may be a part): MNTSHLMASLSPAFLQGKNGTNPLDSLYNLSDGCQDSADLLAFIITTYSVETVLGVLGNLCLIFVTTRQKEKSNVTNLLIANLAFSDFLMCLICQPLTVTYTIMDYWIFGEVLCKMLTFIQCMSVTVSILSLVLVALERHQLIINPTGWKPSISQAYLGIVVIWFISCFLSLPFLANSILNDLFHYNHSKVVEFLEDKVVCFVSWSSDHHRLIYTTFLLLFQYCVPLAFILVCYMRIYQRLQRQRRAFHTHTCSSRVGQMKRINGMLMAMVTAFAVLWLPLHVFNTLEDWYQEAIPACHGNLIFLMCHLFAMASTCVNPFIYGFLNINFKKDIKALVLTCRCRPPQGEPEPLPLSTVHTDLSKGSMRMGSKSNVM

SMILES: CC[C@](C)(NC(=O)[C@H]1C[C@H](O)CN1C(=O)[C@H](CO)NC(=O)c1c[nH]cn1)C(=O)N[C@@H](Cc1ccncc1)C(=O)N[C@@H](CC1CCCCC1)C(=O)N[C@@H](CC(C)(C)C)C(=O)N[C@@H](CC(N)=O)C(=O)N[C@@H](CCCCN)C(=O)NC(C)(C)C(=O)N[C@H](C(=O)N[C@@H](CCCNC(=N)N)C(=O)N[C@@H](CCC(N)=O)C(=O)N[C@@H](CCCNC(=N)N)C(=O)N[C@@H](CC1CCCCC1)C(N)=O)[C@@H](C)O
- Tmax [1]: 10.2 min
- Vd [2]: 0.293 L/kg
- pIC50 [3]: 9.51
- Cmax [4]: 452 nM
- Activity [5]: Active
- concentration [6]: 2060 nM
- pEC50 [7]: < 6.00
- Activity [8]: Active
- clearance [9]: 14.2 mL/min/kg
- Activity [10]: Active
- pEC50 [11]: 10.42
- inhibition in vivo at 0.01 mg/kg [12]: 8.9%
- Activity [13]: Active
- pEC50 [14]: 9.82
- MRT [15]: 33.6 min
- Activity [16]: Dose-dependent effect
- bioavailability [17]: 60.2%
- Activity [18]: inactive
- AUC(0-t) at 24 h [19]: 0.577 µM·h
- fold change (FC) [20]: 30
- inhibition in vivo at 0.3 mg/kg/day [21]: 41%
- AUC(0-t) at 24 h [22]: 0.347 µM·h
- Activity [23]: Active
- Activity [24]: Dose-dependent effect
- MRT [25]: 21 min
- inhibition in vivo at 1 mg/kg [26]: 7.6%
- inhibition in vivo at 0.03 mg/kg [27]: 15.1%
